Consider one compound from publication PMC10327353 (Breast Cancer Research : BCR, 2023).

One data set deals with CYP P450s. Nature of the data set: CYP P450 inhibition and induction. Format: in vitro ADME. Particulars: in vitro.
In another data set the test system is P-gp-BCRP. In words: P-gp-BCRP efflux ratio, cellular transport assay. In kind it is in vitro ADME, human. The method, then:
A discussion of the structure–activity relationship (SAR) cumulated in the design of DZD1516 (Fig. 1) is as follows. The HER2 inhibitory potency screening for SAR development was performed using HER2 and EGFR enzymatic assays. The cellular activity was evaluated in HER2+ cell line BT474C1 by measuring pHER2 and antiproliferation activities. Cellular transport assays measuring the permeability and efflux ratio of compounds in cells expressing human P-gp (MDR1) and BCRP were used to provide essential information for assessing their BBB penetration potential.

Data set [1] deals with BT474C1-Luci Mono1 BM xenograft. In words: BM (brain metastasis) BT474C1-Luci Mono1 xenograft model. In kind it is in vivo, nude mice. The procedure: The BM model was established by intracerebral (ICB) injection of 4 µl of cell suspension containing 3 × 10^5 cells into each mouse following similar procedures published (30). In brieft, 17β- ESTRADIOL (90-day release 0.36 mg/pellet) were injected subcutaneously 24 hrs before cell inoculation. Under anesthesia, a sagittal incision (approximately 1 cm long) was made over the parieto-occipital bone using a sterile scalpel. Then a hole was punctured on the skull at 2.5 mm to the right of the bregma and 1 mm anterior to the coronal suture using a sterile 25-gauge sharp drill. […] The bioluminescent signals of the implanted cells were measured by the Xenogen IVIS spectrum imaging system (PerkinElmer, USA) to monitor tumor growth. […]
In both BM and LM models, the day of randomization was defined as Day 0 and the treatment was started one day after randomization. The bioluminescence signals and body weight of the mice were measured once weekly. Relative bioluminescence intensity on a specific day was calculated by dividing the bioluminescence intensity on that day by the bioluminescence intensity on Day 0. The tumour growth inhibition (TGI) was calculated by formula: TGI (%) = (1-(relative bioluminescence intensity of treated group)/(relative bioluminescence intensity of control group)) x 100.Establishment of SC model

For data set [2], the system named is 121 recombinant human kinases. In words: Kinome selectivity profile, 121-kinase panel. Particulars: 1 µM DZD1516, Km ATP. In kind it is biochemical. The method, then: In vitro profiling of the 121-recombinant kinase panel was performed at Eurofins UK Ltd (Dundee, UK). In brief, recombinant kinases were incubated within an appropriate buffer containing peptide substrate and radiolabelled γ-^33P-ATP together with the presence or absence of the required compound concentration. The reaction was initiated by adding ATP/Mg^2+ mix. After incubation for 40 minutes at room temperature, the reaction was stopped by adding 3% phosphoric acid solution. A portion of the reaction mix was spotted onto P30 filtermat to trap peptide and washed three times for 5 minutes with phosphoric acid to remove non-specific γ-^33P-ATP. The substrate phosphorylation was then measured by scintillation counting, which determined the level of kinase activity inhibition compared to control reactions. Percentage inhibition data for each kinase was mapped to the kinome tree (www.kinhub.org).

The next data set deals with HER2 (Homo sapiens, UniProt P04626). In words: In vitro HER2 enzymatic assay (Lance Ultra Kinase Assay). Format: biochemical. Further details: purchased Thermo Fisher PR4918A. Particulars: recombinant HER2, 2 mM ATP; read-out: IC50 against HER2 in the enzymatic assay. The procedure: Recombinant HER2 was purchased from Thermo Fisher (Cat. # PR4918A). The inhibition potency of compounds against HER2 enzyme was assessed using Lance Ultra Kinase Assay.
Sequence of HER2 (P04626 23-1255): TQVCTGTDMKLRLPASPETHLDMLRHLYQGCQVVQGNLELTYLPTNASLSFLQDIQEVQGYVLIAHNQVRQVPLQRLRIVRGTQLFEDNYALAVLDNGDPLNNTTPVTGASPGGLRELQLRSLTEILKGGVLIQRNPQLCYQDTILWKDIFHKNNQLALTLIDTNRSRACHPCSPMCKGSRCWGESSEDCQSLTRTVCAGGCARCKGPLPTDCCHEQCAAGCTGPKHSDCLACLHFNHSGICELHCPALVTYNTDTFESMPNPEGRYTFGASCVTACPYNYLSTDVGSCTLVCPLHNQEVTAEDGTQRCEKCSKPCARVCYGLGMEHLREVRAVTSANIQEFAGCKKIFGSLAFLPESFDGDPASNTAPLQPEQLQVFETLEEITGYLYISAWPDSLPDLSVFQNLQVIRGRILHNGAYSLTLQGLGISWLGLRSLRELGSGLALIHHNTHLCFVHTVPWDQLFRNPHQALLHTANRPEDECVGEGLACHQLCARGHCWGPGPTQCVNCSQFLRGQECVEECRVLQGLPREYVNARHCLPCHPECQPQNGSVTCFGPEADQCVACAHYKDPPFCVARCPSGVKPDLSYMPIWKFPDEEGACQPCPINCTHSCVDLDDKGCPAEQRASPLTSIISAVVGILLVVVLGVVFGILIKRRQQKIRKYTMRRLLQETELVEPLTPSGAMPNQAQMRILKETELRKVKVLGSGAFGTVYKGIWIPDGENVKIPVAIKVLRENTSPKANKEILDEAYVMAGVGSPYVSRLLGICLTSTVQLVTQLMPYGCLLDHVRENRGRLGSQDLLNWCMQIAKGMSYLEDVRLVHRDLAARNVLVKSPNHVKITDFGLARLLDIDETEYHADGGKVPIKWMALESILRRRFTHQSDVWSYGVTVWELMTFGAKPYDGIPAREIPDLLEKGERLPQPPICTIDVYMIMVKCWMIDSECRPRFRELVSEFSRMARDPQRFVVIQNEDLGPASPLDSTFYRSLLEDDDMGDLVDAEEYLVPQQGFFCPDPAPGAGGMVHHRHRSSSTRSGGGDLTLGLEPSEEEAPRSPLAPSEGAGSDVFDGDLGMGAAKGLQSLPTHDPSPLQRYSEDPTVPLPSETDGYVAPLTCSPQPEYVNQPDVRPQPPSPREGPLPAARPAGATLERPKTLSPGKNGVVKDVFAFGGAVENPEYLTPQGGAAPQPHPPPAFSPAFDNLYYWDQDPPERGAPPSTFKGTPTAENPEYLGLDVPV
In brief, recombinant kinases were pre-incubated in the presence or absence of the compound at room temperature for 30 minutes. The reaction was initiated by the addition of the ATP and substrate peptide. After 60 minutes of incubation, the reaction was stopped by the addition of the detection reagent mix containing EDTA. The fluorescence was measured at 615 nm and 665 nm, respectively, with excitation wavelength at 320 nm. The calculated signal ratio of 665 nm/615 nm is proportional to the kinase activity.

The target of the next data set is T1, wild-type EGFR (Homo sapiens, UniProt P00533).
T1 construct: endogenous in cells; host or cells: A431
T1 sequence (P00533 25-1210): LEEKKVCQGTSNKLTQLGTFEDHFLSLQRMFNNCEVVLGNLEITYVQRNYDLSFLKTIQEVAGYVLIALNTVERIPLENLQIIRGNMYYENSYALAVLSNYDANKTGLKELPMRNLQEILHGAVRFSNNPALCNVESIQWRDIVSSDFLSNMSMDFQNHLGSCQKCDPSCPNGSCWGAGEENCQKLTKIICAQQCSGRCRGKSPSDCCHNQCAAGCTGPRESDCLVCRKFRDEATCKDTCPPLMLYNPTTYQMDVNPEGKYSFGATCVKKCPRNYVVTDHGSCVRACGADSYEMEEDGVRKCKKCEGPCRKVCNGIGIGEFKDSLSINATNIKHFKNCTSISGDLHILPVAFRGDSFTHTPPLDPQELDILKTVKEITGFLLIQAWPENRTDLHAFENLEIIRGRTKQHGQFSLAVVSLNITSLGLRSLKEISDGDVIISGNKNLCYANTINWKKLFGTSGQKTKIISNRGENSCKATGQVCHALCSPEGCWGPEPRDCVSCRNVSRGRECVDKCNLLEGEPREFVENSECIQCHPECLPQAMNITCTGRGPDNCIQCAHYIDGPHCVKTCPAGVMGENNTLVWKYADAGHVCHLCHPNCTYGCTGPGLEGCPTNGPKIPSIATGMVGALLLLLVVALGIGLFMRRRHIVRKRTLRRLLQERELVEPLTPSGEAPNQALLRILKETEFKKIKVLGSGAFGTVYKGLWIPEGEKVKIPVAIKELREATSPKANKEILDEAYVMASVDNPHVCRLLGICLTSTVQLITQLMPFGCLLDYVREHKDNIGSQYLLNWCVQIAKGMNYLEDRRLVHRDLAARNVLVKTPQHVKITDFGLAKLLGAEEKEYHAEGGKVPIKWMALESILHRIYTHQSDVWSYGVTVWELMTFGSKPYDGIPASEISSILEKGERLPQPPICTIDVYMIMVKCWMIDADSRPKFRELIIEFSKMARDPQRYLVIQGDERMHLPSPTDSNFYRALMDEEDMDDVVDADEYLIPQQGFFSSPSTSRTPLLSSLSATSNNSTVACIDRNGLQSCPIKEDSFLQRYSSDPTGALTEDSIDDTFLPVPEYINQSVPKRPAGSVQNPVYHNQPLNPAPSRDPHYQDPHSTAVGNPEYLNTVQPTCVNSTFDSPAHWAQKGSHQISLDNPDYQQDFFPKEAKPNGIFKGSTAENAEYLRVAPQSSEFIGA
Nature of the data set: pEGFR MSD assay in A431 cells. In kind it is cell-based. The method, then: A431 and BT474C1-Luci Mono1 cells were seeded in 96-well plates at 20,000 cells/well in DMEM medium containing 1% FBS. After overnight incubation, all cells were treated with compounds at a series of concentrations for 4 hrs. For A431 cell line, an extra stimulation with recombinant human EGF (100 ng/ml for 10 minutes) is applied to activate wild-type EGFR following compound treatment. pEGFR^Y1068 and total EGFR levels were measured by an electro chemiluminescent method (MULTI-SPOT®96 4-Spot HB Prototype EGFR Triplex […]: pEGFR (Y1068), Total EGFR; MESO SCALE DISCOVERY, Cat# N45ZB-1) with MSD SECTOR® Imager, which outputs the ratio of pEGFR/total EGFR for each well. pHER2^Y1248 and total HER2 levels were measured similarly using pHER2 (Y1248) Assay Whole Cell Lysate Kit (MESO SCALE DISCOVERY, Cat# K151CLD-3). The percentage of inhibition was calculated as: % Inhibition = 100 x [1 - (ratio of the sample well - ratio of Min ctrl well)/ (ratio of Max ctrl well - ratio of Min ctrl well)].

The target of the next data set is T2, BCRP (Homo sapiens, UniProt Q9UNQ0).
T2 construct: endogenous in cells; host or cells: Caco-2
T2 sequence (Q9UNQ0 whole entry): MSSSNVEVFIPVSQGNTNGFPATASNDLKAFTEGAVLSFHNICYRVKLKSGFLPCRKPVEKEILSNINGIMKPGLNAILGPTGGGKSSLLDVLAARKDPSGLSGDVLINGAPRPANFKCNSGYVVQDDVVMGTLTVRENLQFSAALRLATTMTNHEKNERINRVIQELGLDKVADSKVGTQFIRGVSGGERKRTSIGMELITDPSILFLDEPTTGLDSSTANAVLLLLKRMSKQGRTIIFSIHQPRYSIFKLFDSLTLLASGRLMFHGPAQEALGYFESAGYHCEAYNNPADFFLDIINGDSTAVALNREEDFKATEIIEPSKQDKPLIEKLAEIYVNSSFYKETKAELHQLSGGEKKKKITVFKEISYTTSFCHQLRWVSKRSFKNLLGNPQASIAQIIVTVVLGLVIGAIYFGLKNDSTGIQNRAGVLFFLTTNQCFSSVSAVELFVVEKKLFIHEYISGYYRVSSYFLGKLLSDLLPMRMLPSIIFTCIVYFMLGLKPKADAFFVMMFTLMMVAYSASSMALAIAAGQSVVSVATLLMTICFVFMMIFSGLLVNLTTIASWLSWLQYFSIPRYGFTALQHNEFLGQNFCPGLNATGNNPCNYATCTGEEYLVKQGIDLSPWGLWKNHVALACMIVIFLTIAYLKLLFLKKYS
In words: BCRP efflux ratio, bi-directional transport assay. In kind it is in vitro ADME.

The target in data set [3] is potassium ion-channel hERG (Homo sapiens, UniProt Q12809). In words: hERG in vitro safety pharmacology. In kind it is biochemical.
Sequence of potassium ion-channel hERG (Q12809 whole entry): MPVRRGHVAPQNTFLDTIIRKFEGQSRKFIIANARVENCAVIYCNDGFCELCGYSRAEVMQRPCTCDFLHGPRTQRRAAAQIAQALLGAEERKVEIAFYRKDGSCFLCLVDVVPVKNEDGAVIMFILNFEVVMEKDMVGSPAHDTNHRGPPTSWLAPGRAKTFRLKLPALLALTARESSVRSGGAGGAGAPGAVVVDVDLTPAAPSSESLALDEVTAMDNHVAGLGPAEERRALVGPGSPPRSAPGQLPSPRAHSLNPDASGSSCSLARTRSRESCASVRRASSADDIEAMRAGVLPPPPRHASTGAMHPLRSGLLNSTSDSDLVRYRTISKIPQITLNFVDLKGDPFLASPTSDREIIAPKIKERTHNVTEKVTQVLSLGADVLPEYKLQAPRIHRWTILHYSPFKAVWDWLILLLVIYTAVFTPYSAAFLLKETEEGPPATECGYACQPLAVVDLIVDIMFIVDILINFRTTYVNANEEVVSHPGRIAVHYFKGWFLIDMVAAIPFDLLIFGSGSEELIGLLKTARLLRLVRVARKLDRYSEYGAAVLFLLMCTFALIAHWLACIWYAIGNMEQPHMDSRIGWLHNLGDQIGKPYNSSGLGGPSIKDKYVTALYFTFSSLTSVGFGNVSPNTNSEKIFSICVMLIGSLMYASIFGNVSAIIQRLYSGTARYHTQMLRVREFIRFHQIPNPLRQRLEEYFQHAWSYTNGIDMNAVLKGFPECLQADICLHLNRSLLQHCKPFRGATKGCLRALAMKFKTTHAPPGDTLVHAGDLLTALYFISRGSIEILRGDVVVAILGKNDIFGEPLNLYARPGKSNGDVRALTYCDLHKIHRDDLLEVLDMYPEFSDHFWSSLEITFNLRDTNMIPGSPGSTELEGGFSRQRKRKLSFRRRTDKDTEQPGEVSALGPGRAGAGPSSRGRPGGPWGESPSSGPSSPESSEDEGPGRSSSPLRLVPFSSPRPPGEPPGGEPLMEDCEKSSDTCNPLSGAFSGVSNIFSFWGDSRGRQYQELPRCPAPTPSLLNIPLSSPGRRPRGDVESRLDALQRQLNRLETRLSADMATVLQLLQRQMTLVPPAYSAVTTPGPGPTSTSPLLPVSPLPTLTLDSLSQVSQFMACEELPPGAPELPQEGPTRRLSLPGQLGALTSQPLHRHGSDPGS

One may read the efflux ratio as the permeability from basolateral to apical divided by that in the opposite direction, in the common usage. What is called TGI is the reduction of tumour growth relative to the control group. A higher TGI goes with much slowing of growth. A word on the IC50: it is the concentration that inhibits the measured activity by half. With `COc1cc(O[C@H]2CCN(C)CC2(F)F)c2c(Nc3ccc(Oc4ccn5ncnc5c4)c(C)c3)ncnc2c1` [DZD1516], the “CYP P450s inhibitor and inducer” value in the data set with CYP P450s is “not a CYP P450s inhibitor and inducer”. Also, in the data set on P-gp-BCRP (human, not told, 1 µM), the efflux ratio at 1 µM was 1.8. Moreover, the “active efflux via P-gp and BCRP” value in the data set with P-gp-BCRP (in vitro) was “do not undergo active efflux via P-gp and BCRP in vitro”. For the same compound, the results for the TGI in data set [1] (100 mg/kg twice daily) and in data set [1] (150 mg/kg twice daily) were 48% and 79%, respectively. Moreover, in data set [2], the “number of kinases inhibited > 50%” value is 12. The IC50 was 0.56 nM on HER2; 1460 nM on wild-type EGFR (A431, 4 hrs treatment, EGF stimulation); 3290 nM in data set [3]. For the same compound, the “selectivity against wild-type EGFR” value on wild-type EGFR (pEGFR A431 vs pHER2 BT474C1) is “greater than 300 fold”. Also, the “Efflux ratio BCRP @1 µM” value at BCRP (1 µM, listed as Cpd-5) came out at 1.3. In addition, at BCRP (human, Caco-2, pH 7.4, 1 µM), the efflux ratio at 120 min, 1 µM was less than 2.
